The results in this text go back to publication PMC6774072, “Azologization and repurposing of a hetero-stilbene-based kinase inhibitor: towards the design of photoswitchable sirtuin inhibitors” (Beilstein Journal of Organic Chemistry, 2019).

A short description of data set [1]: isomer composition of 11 at thermal equilibrium and photostationary states, HPLC with UV–vis detection at the isosbestic points. The data set is classed as physicochemical. From the text:
The photoisomerization could be reversed by exposure to visible light, i.e. 452 nm, albeit the PSS at 452 nm still comprised about 25% of (Z)-11 as determined by HPLC analysis using UV–vis detection at the isosbestic points (Table 2). Light of 500 nm could also reverse photoisomerization, but was not as effective as 452 nm radiation. […] Switching between the two PSS could be repeated several times without any observable fatigue of the compound (Figure 5).
Photochemistry: All photoisomerization experiments were conducted under ruby light of 630 nm. Illumination was executed using a Bio-Link 254 Crosslinker from Vilber-Lourmat equipped with six Vilber-Lourmat T8-C lamps (8 W, 254 nm) or six Vilber-Lourmat T8-L lamps (8W, 365 nm), respectively. Visible light radiation of 630 nm (red), 500 nm (green) and 452 nm (blue) was derived from a Paulmann FlexLED 3D strip. All compounds were irradiated in solution, using spectrophotometric grade solvents. Photoisomerization and UV–vis spectra measurement was conducted in quartz cuvettes at room temperature. […]
of 11 (1 mM) were injected before and after 5 minutes of 365 nm or 1 minute of 452 nm irradiation. Isocratic elution with 60% MeOH and 40% water (+ 0.1% HCOOH) for 12 minutes at 1 mL∙min−1 was applied and gave complete separation of the isomers. Integration of the peak areas at the isosbestic points (λobs = 244 nm and 270 nm) gave the relative percentage of (E)-11 and (Z)-11, respectively (Figure S5).
Table S1. Isomer composition ((E)-11 / (Z)-11) at the thermal equilibrium (∆) and the PSS after 5 minutes of 365 nm and 1 minute of 452 nm radiation. […]

Data set [2] in a line: PSS thermal half-life of 11 by UV/Vis spectroscopy. The data set is classed as physicochemical. The settings on record: PSS after 365 nm irradiation; 50 µM in 5% DMSO (v/v) in enzyme assay buffer. As for the experimental part: PSS thermal half-life of 11
The thermal half-life of 11 after 5 minutes of 365 nm irradiation was determined by UV/Vis-spectroscopy. Therefore, a 50 µM solution of 11 in 5% DMSO (v/v) in enzyme assay buffer was prepared and an initial spectrum of the thermal equilibrium recorded. After 5 minutes of irradiation with 365 nm the increase of absorbance at the thermal equilibrium maximum ( λ = 324 nm) was followed over a period of 96 hours (Figure S6). Absorbance at 324 nm was plotted as a function of time. A non-linear regression yielded the half-live of the PSS. Due to the slow rate of thermal isomerization only a short period could be measured. Therefore the limit value was set to 0.939 as this was the absorbance at 324 nm of 11 at the thermal […]
Figure S6: 11 (50 µM) in 5% DMSO (v/v) in enzyme assay buffer after 5 minutes of 365 nm irradiation. Absorbance at 324 nm of plotted as a function of time with non-linear fit (red line).
(1 picture or pasted object on this page, not shown here)
Table S2: Non-linear fit of measured values.

As usually defined, the melting point is the temperature, or range, at which the solid turns liquid. `NC(=O)c1cncc(N=Nc2ccc(F)cc2)c1` [Compound 11, 5-[(4-Fluorophenyl)diazenyl]nicotinamide] registered a melting point of 212.3 °C. In addition, the “percentage of (Z)-11 in PSS” value in data set [1] (365 nm irradiation) was determined as 84%. For the same compound, the “percentage of (Z)-11 in PSS” value in data set [1] (452 nm irradiation, HPLC, UV–vis detection at isosbestic points) is reported as “about 25%”. In addition, the “Isomer composition ((E)-11 / (Z)-11)” value in data set [1] (PSS (365 nm), 5 minutes, λobs 244 nm) was 17 / 83. In data set [1] (PSS (365 nm), 5 minutes, λobs 270 nm), the “Isomer composition ((E)-11 / (Z)-11)” value is given as 16 / 84. In addition, the “Isomer composition ((E)-11 / (Z)-11)” value in data set [1] (PSS (452 nm), 1 minute, λobs 244 nm) is listed as 76 / 24. Also, the “Isomer composition ((E)-11 / (Z)-11)” value in data set [1] (PSS (452 nm), 1 minute, λobs 270 nm) is on record as 74 / 26. Besides, the “Isomer composition ((E)-11 / (Z)-11)” value in data set [1] (thermal equilibrium (∆), λobs 244 nm) was 98 / 2. Also, in data set [1] (thermal equilibrium (∆), λobs 270 nm), the “Isomer composition ((E)-11 / (Z)-11)” value is given as 99 / 1. Besides, the “t½ of PSS (thermal)” value in data set [2] is 12.5 days.
